# Assays:
# Sclerotinia sclerotiorum [1] = assay: In vivo antifungal Sclerotinia sclerotiorum in Pepper (Capsicum annuum L. cv. Sera Demre) assessed as inhibition of mycelial growth in volatile phase at 134 umol/L measured after 10 to 14 weeks; assay type: functional
# Sclerotinia sclerotiorum [2] = assay: In vivo antifungal Sclerotinia sclerotiorum in Pepper (Capsicum annuum L. cv. Sera Demre) assessed as inhibition of mycelial growth in volatile phase at 67 umol/L measured after 10 to 14 weeks; assay type: functional
# Sclerotinia sclerotiorum [3] = assay: Antifungal activity against Sclerotinia sclerotiorum assessed as inhibition of mycelial growth in volatile phase at 670 umol/l measured at 20 degC after 5 days; assay type: functional; conditions: 120 h, read-out: GI
# Sclerotinia sclerotiorum [4] = assay: Antifungal activity against Sclerotinia sclerotiorum assessed as inhibition of mycelial growth in volatile phase at 469 umol/l measured at 20 degC after 5 days; assay type: functional; conditions: 120 h, read-out: GI
# Sclerotinia sclerotiorum [5] = assay: Antifungal activity against Sclerotinia sclerotiorum assessed as inhibition of mycelial growth in volatile phase at 335 umol/l measured at 20 degC after 5 days; assay type: functional; conditions: 120 h, read-out: GI
# Sclerotinia sclerotiorum [6] = assay: Antifungal activity against Sclerotinia sclerotiorum assessed as inhibition of mycelial growth in volatile phase at 67 umol/l measured at 20 degC after 5 days; assay type: functional; conditions: 120 h, read-out: GI
# Sclerotinia sclerotiorum [7] = assay: Antifungal activity against Sclerotinia sclerotiorum assessed as inhibition of mycelial growth in volatile phase at 34 umol/l measured at 20 degC after 5 days; assay type: functional; conditions: 120 h, read-out: GI
# Sclerotinia sclerotiorum [8] = assay: Antifungal activity against Sclerotinia sclerotiorum assessed as inhibition of mycelial growth in contact phase at 670 umol/l measured at 20 degC after 5 days; assay type: functional; conditions: 120 h, read-out: GI
# Sclerotinia sclerotiorum [9] = assay: Antifungal activity against Sclerotinia sclerotiorum assessed as inhibition of mycelial growth in contact phase at 1340 umol/l measured at 20 degC after 5 days; assay type: functional; conditions: 120 h, read-out: GI
# Sclerotinia sclerotiorum [10] = assay: Antifungal activity against Sclerotinia sclerotiorum assessed as inhibition of mycelial growth in contact phase at 603 umol/l measured at 20 degC after 5 days; assay type: functional; conditions: 120 h, read-out: GI
# Sclerotinia sclerotiorum [11] = assay: Antifungal activity against Sclerotinia sclerotiorum assessed as inhibition of mycelial growth in contact phase at 469 umol/l measured at 20 degC after 5 days; assay type: functional; conditions: 120 h, read-out: GI
# Sclerotinia sclerotiorum [12] = assay: Antifungal activity against Sclerotinia sclerotiorum assessed as inhibition of mycelial growth in contact phase at 2011 umol/l measured at 20 degC after 5 days; assay type: functional; conditions: 120 h, read-out: GI
# Sclerotinia sclerotiorum [13] = assay: Fungistatic activity in Sclerotinia sclerotiorum assessed as inhibition of carpogenic germination in volatile phase at 670 umol/l measured at 20 degC after 5 days relative to control; assay type: functional; conditions: 120 h
# Sclerotinia sclerotiorum [14] = assay: Fungistatic activity in Sclerotinia sclerotiorum assessed as inhibition of carpogenic germination in volatile phase at 335 umol/l measured at 20 degC after 5 days relative to control; assay type: functional; conditions: 120 h
# Sclerotinia sclerotiorum [15] = assay: Fungistatic activity in Sclerotinia sclerotiorum assessed as inhibition of carpogenic germination in volatile phase at 67 umol/l measured at 20 degC after 5 days relative to control; assay type: functional; conditions: 120 h
# Sclerotinia sclerotiorum [16] = assay: Fungistatic activity in Sclerotinia sclerotiorum assessed as inhibition of carpogenic germination in volatile phase at 34 umol/l measured at 20 degC after 5 days relative to control; assay type: functional; conditions: 120 h
# Sclerotinia sclerotiorum [17] = assay: Fungistatic activity in Sclerotinia sclerotiorum assessed as sclerotial viability measured at 20 degC after 5 days; assay type: functional, organism-based; conditions: 120 h
# Sclerotinia sclerotiorum [18] = assay: Fungistatic activity in Sclerotinia sclerotiorum assessed as inhibition of mycelial growth in volatile phase measured at 20 degC after 5 days; assay type: functional, organism-based; conditions: 120 h
# Sclerotinia sclerotiorum [19] = assay: Fungistatic activity in Sclerotinia sclerotiorum assessed as inhibition of mycelial growth in contact phase measured at 20 degC after 5 days; assay type: functional, organism-based; conditions: 120 h
# Sclerotinia sclerotiorum [20] = assay: Fungitoxic activity in Sclerotinia sclerotiorum assessed as viability in volatile phase at 670 umol/l measured at 20 degC after 5 days relative to control; assay type: functional; conditions: 120 h, read-out: GI
# Sclerotinia sclerotiorum [21] = assay: Fungistatic activity in Sclerotinia sclerotiorum assessed as viability in volatile phase at 335 umol/l measured at 20 degC after 5 days relative to control; assay type: functional; conditions: 120 h, read-out: GI
# Sclerotinia sclerotiorum [22] = assay: Fungistatic activity in Sclerotinia sclerotiorum assessed as inhibition of mycelial growth in contact phase at 2011 umol/l measured at 20 degC after 5 days relative to control; assay type: functional; conditions: 120 h, read-out: GI
# Sclerotinia sclerotiorum [23] = assay: Fungitoxic activity in Sclerotinia sclerotiorum assessed as inhibition of mycelial growth in volatile phase at 469 umol/l measured at 20 degC after 5 days relative to control; assay type: functional; conditions: 120 h, read-out: GI
# Sclerotinia sclerotiorum [24] = assay: Antifungal activity against Sclerotinia sclerotiorum assessed as inhibition of germination in volatile phase at 670 umol/l measured at 20 degC after 5 days; assay type: functional; conditions: 120 h
# Sclerotinia sclerotiorum [25] = assay: Antifungal activity against Sclerotinia sclerotiorum assessed as inhibition of germination in volatile phase at 335 umol/l measured at 20 degC after 5 days; assay type: functional; conditions: 120 h
# Sclerotinia sclerotiorum [26] = assay: Antifungal activity against Sclerotinia sclerotiorum assessed as inhibition of germination in volatile phase at 201 umol/l measured at 20 degC after 5 days; assay type: functional; conditions: 120 h
# Sclerotinia sclerotiorum [27] = assay: Antifungal activity against Sclerotinia sclerotiorum assessed as inhibition of germination in volatile phase at 67 umol/l measured at 20 degC after 5 days; assay type: functional; conditions: 120 h
# Sclerotinia sclerotiorum [28] = assay: Antifungal activity against Sclerotinia sclerotiorum assessed as inhibition of germination in volatile phase at 34 umol/l measured at 20 degC after 5 days; assay type: functional; conditions: 120 h
smiles,measurement,setting,value
S=C=NCCc1ccccc1 [PHENETHYLISOTHIOCYANATE],inhibition in vivo at 134 µM,Sclerotinia sclerotiorum [1],76.7%
same,inhibition in vivo at 67 µM,Sclerotinia sclerotiorum [2],70%
same,inhibition of growth at 670 µM,Sclerotinia sclerotiorum [3],100%
same,inhibition of growth at 469 µM,Sclerotinia sclerotiorum [4],64%
same,inhibition of growth at 335 µM,Sclerotinia sclerotiorum [5],51.3%
same,inhibition of growth at 67 µM,Sclerotinia sclerotiorum [6],42.7%
same,inhibition of growth at 34 µM,Sclerotinia sclerotiorum [7],24.3%
same,inhibition of growth at 670 µM,Sclerotinia sclerotiorum [8],59.7%
same,inhibition of growth at 1340 µM,Sclerotinia sclerotiorum [9],92.5%
same,inhibition of growth at 603 µM,Sclerotinia sclerotiorum [10],24.3%
same,inhibition of growth at 469 µM,Sclerotinia sclerotiorum [11],5%
same,inhibition of growth at 2011 µM,Sclerotinia sclerotiorum [12],100%
same,inhibition at 670 µM,Sclerotinia sclerotiorum [13],82.5%
same,inhibition at 335 µM,Sclerotinia sclerotiorum [14],57.5%
same,inhibition at 67 µM,Sclerotinia sclerotiorum [15],55%
same,inhibition at 34 µM,Sclerotinia sclerotiorum [16],12.5%
same,EC50,Sclerotinia sclerotiorum [17],114 µM
same,EC50,Sclerotinia sclerotiorum [18],144 µM
same,EC50,Sclerotinia sclerotiorum [19],650 µM
same,inhibition of growth at 670 µM,Sclerotinia sclerotiorum [20],100%
same,inhibition of growth at 335 µM,Sclerotinia sclerotiorum [21],100%
same,inhibition of growth at 2011 µM,Sclerotinia sclerotiorum [22],100%
same,inhibition of growth at 469 µM,Sclerotinia sclerotiorum [23],100%
same,inhibition at 670 µM,Sclerotinia sclerotiorum [24],100%
same,inhibition at 335 µM,Sclerotinia sclerotiorum [25],100%
same,inhibition at 201 µM,Sclerotinia sclerotiorum [26],66.7%
same,inhibition at 67 µM,Sclerotinia sclerotiorum [27],26.7%
same,inhibition at 34 µM,Sclerotinia sclerotiorum [28],6.7%

# Source: ChEMBL document CHEMBL3046027, “In vitro and in vivo antifungal activity of synthetic pure isothiocyanates against Sclerotinia sclerotiorum” (Pest Manag Sci, 2011)
